Consider 19 compounds from PMC12439760 (Bioorganic & medicinal chemistry, 2025).

A short description of one series: Human liver microsome. The format is in vitro ADME. To be noted: pooled human liver microsomes, pH 7.4.
Series [1] deals with T1, hCB1 receptor (Homo sapiens, UniProt P21554). Put plainly: hCB1 Gαq16-coupled calcium mobilization assay in CHO-K1 cells. Type of series: cell-based. As to conditions: hCB1 Ca EC50, CHO cells expressing hCB1 and Gαq16, calcium mobilization.
Series [2] has as its target T1, hCB1 receptor. Put plainly: [3H]CP55940 radioligand displacement, CHO cell membranes overexpressing hCB1. The format is binding.
For series [3], the target named is T2, hCB2 receptor (Homo sapiens, UniProt P34972). Put plainly: hCB2 Gαq16-coupled calcium mobilization assay in CHO-K1 cells. Type of series: cell-based. To be noted: hCB2 Ca EC50, CHO cells expressing hCB2 and Gαq16, calcium mobilization.
Series [4] has as its target T2, hCB2 receptor. Kind of series: [3H]CP55940 radioligand displacement, CHO cell membranes overexpressing hCB2. The format is binding.
In series [5] the test system is CYP3A4, CYP1A2 and CYP2B6. Kind of series: Isoform-specific CYP induction assays in HepaRG cells, overall profile. The format is cell-based, human. To be noted: data not shown.
Series [6] is described as follows: Mouse pharmacokinetic study. The format is in vivo, C57BL/6 mice. As to conditions: mice, 3 mg/kg po, data not shown.

Where “and” joins values, the source holds several entries; their conditions need not be identical. Equal entries are not always repeated.

T2 sequence (P34972 whole entry): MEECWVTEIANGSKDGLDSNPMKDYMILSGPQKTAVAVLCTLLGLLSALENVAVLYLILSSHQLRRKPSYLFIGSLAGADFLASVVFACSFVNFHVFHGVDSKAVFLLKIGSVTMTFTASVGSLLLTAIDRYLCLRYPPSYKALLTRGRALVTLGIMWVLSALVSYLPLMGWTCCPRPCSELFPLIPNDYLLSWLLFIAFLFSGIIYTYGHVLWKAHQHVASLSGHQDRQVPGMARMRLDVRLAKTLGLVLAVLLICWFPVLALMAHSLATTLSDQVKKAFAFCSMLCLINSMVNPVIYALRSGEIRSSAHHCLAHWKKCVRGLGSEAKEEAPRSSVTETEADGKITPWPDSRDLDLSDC
T1 sequence (P21554 whole entry): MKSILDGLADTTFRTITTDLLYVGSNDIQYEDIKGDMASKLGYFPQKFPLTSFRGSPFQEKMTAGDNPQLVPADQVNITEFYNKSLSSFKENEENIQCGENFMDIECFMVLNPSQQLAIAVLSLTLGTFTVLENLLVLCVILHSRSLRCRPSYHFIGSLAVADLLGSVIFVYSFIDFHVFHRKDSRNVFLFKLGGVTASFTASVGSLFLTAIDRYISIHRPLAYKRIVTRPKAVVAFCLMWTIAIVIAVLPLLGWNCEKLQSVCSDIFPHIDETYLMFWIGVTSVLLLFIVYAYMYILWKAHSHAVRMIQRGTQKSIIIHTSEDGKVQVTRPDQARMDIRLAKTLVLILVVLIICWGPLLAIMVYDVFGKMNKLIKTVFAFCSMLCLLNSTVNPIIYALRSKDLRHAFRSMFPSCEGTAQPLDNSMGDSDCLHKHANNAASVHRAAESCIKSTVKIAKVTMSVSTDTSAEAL

Compound `CC(C)(NC(=O)c1nn(Cc2ccc(F)cc2)c2ccccc12)C(=O)N1CCC[C@H]1C(N)=O` [Compound 14, N-{1-[(2S)-2-Carbamoylpyrrolidin-1-yl]-2-methyl-1-oxopropan-2-yl}-1-[(4-fluorophenyl)methyl]-1H-indazole-3-carboxamide] showed a half-life at 1 μM in the series “Human liver microsome” of 10.2 h. Moreover, the microsomal CLint at 1 μM in the series “Human liver microsome” was determined as 2 µL/min/mg. Moreover, the EC50 was ~20 nM and 20 nM on hCB1 receptor [1]; 16 ± 1 nM on hCB2 receptor [3]. Further, the values for the Ki on hCB1 receptor [2] and at hCB2 receptor [4] were 4 nM and 6 nM, respectively.
In “Human liver microsome”, `CC(C)(NC(=O)c1nn(Cc2ccc(F)cc2)c2ccccc12)C1CCCN(C(N)=O)C1` (stereo not drawn) [Compound 31, N-[2-(1-Carbamoylpiperidin-3-yl)propan-2-yl]-1-[(4-fluorophenyl)methyl]-1H-indazole-3-carboxamide] came in with a half-life at 1 μM of 0.433 h. The Ki on hCB1 receptor [2] amounted to 49 nM; at hCB2 receptor [4] it was 27 nM. Also, on hCB2 receptor [3], the EC50 stood at 29 ± 4 nM.
`CC(C)(NC(=O)c1nn(Cc2ccc(F)cc2)c2ccccc12)C1CCCN(CC(N)=O)C1` (stereo not drawn) [Compound 34, N-{2-[1-(Carbamoylmethyl)piperidin-3-yl]propan-2-yl}-1-[(4-fluorophenyl)methyl]-1H-indazole-3-carboxamide] registered a half-life at 1 μM in “Human liver microsome” below 0.333 h. Further, the EC50 was 369 ± 57 nM on hCB1 receptor [1] and 28 ± 13 nM on hCB2 receptor [3].
Consider `NC(=O)CN1CCC[C@@H](NC(=O)c2nn(Cc3ccc(F)cc3)c3ccccc23)C1` [Compound 41, N-[(3R)-1-(Carbamoylmethyl)piperidin-3-yl]-1-[(4-fluorophenyl)methyl]-1H-indazole-3-carboxamide], for which the EC50 amounted to 803 ± 73 nM at hCB1 receptor [1] and 33 ± 1 nM on hCB2 receptor [3].
With `CC1(NC(=O)c2nn(Cc3ccc(F)cc3)c3ccccc23)CCCN(CC(N)=O)C1` (stereo not drawn) [Compound 42, N-[1-(Carbamoylmethyl)-3-methylpiperidin-3-yl]-1-[(4-fluorophenyl)methyl]-1H-indazole-3-carboxamide], the results for the EC50 at hCB1 receptor [1] and at hCB2 receptor [3] were 39 ± 1 nM and 41 ± 14 nM, respectively.
Turning to `CC(C)(NC(=O)c1nn(Cc2ccc(Cl)cc2)c2ccccc12)c1cccc(C(N)=O)c1` [Compound 43, N-[2-(3-Carbamoylphenyl)propan-2-yl]-1-[(4-chlorophenyl)methyl]-1H-indazole-3-carboxamide], the EC50 on hCB1 receptor [1] and on hCB2 receptor [3] was above 10000 nM each time.
`CC(C)(NC(=O)c1nn(Cc2ccc(C#N)cc2)c2ccccc12)c1cccc(C(N)=O)c1` [Compound 44, N-[2-(3-Carbamoylphenyl)propan-2-yl]-1-[(4-cyanophenyl)methyl]-1H-indazole-3-carboxamide] showed a half-life at 1 μM in the series “Human liver microsome” above 3.33 h. In “Human liver microsome”, this compound had an intrinsic clearance (microsomal CLint) at 1 μM below 5 µL/min/mg. For the same compound, the EC50 at hCB1 receptor [1] is 234 ± 154 nM; at hCB2 receptor [3], above 10000 nM.
`CC(C)(NC(=O)c1nn(CCc2ccc(F)cc2)c2ccccc12)c1cccc(C(N)=O)c1` [Compound 46, N-[2-(3-Carbamoylphenyl)propan-2-yl]-1-[2-(4-fluorophenyl)ethyl]-1H-indazole-3-carboxamide]: the EC50 at hCB1 receptor [1] and on hCB2 receptor [3] was above 10000 nM throughout.
Regarding `CC(C)(NC(=O)c1nn(CC2CCCC2)c2ccccc12)c1cccc(C(N)=O)c1` [Compound 48, N-[2-(3-Carbamoylphenyl)propan-2-yl]-1-(cyclopentylmethyl)-1H-indazole-3-carboxamide], in the series “Human liver microsome”, the half-life at 1 μM was 0.367 h and the microsomal CLint at 1 μM is 58 µL/min/mg. For the same compound, at hCB1 receptor [1], the EC50 stood at 893 ± 192 nM. On hCB2 receptor [3], the EC50 was found to be 613 ± 351 nM.
On to `CC(C)(NC(=O)c1nn(CCC2CCCC2)c2ccccc12)c1cccc(C(N)=O)c1` [Compound 49, N-[2-(3-Carbamoylphenyl)propan-2-yl]-1-(2-cyclopentylethyl)-1H-indazole-3-carboxamide], for which the values for the EC50 at hCB1 receptor [1] and at hCB2 receptor [3] were 383 ± 163 nM and 189 ± 10 nM, respectively.
Turning to `CC(C)(NC(=O)c1nn(CC2CCC(F)(F)CC2)c2ccccc12)c1cccc(C(N)=O)c1` [Compound 50, N-[2-(3-Carbamoylphenyl)propan-2-yl]-1-[(4,4-difluorocyclohexyl)methyl]-1H-indazole-3-carboxamide], in “Human liver microsome”, the half-life at 1 μM is above 3.33 h and the microsomal CLint at 1 μM was below 5 µL/min/mg. Also, the affinity on hCB1 receptor [2] corresponds to a Ki of 2.5 nM. The “CYP induction profile (in words)” value in series [5] was “profile similar to that of 45”. This compound returned a plasma levels in series [6] below 30 ng/mL. At hCB2 receptor [4], this compound came in with a Ki of 3 nM.
In “Human liver microsome”, `CCCCCn1nc(C(=O)NC(C)(C)c2cccc(C(N)=O)c2)c2ccccc21` [Compound 52, N-[2-(3-Carbamoylphenyl)propan-2-yl]-1-pentyl-1H-indazole-3-carboxamide] displayed a half-life at 1 μM of 0.533 h and a microsomal CLint at 1 μM of 19 µL/min/mg. For the same compound, the EC50 at hCB1 receptor [1] was found to be 202 ± 16 nM. Moreover, the concentration giving a half-maximal response (EC50) at hCB2 receptor [3] came out at 175 ± 32 nM.
On to `CC(F)(F)CCCn1nc(C(=O)NC(C)(C)c2cccc(C(N)=O)c2)c2ccccc21` [Compound 53, N-[2-(3-Carbamoylphenyl)propan-2-yl]-1-(4,4-difluoropentyl)-1H-indazole-3-carboxamide], for which the half-life at 1 μM in “Human liver microsome” was 2.67 h. The compound further came in with a microsomal CLint at 1 μM in the series “Human liver microsome” of 7.9 µL/min/mg. Besides, the figures for the EC50 on hCB1 receptor [1] and at hCB2 receptor [3] were 463 ± 187 nM and 3420 ± 151 nM, respectively. Besides, the Ki at hCB1 receptor [2] worked out at 54 nM; on hCB2 receptor [4], 75 nM.
On to `CC(C)(NC(=O)c1nn(CCCCCF)c2ccccc12)c1cccc(C(N)=O)c1` [Compound 54, N-[2-(3-Carbamoylphenyl)propan-2-yl]-1-(5-fluoropentyl)-1H-indazole-3-carboxamide], for which, in “Human liver microsome”, the half-life at 1 μM worked out at 1.02 h and the microsomal CLint at 1 μM stood at 10 µL/min/mg. The EC50 at hCB1 receptor [1] is 84 ± 6 nM. Further, the “CYP induction profile (in words)” value in series [5] is recorded as “profile similar to that of 45”. The compound also came in with a plasma levels in series [6] below 30 ng/mL.
On to `CC(C)(NC(=O)c1nn(CCCCC(F)(F)F)c2ccccc12)c1cccc(C(N)=O)c1` [Compound 55, N-[2-(3-Carbamoylphenyl)propan-2-yl]-1-(5,5,5-trifluoropentyl)-1H-indazole-3-carboxamide], for which, in “Human liver microsome”, the half-life at 1 μM worked out at 1.7 h and the microsomal CLint at 1 μM worked out at 6 µL/min/mg. Further, the half-maximal effective concentration (EC50) on hCB1 receptor [1] amounted to 156 ± 35 nM. Besides, the EC50 on hCB2 receptor [3] is 341 ± 145 nM.
Taken in the same sequence, the figures for `CC(C)(NC(=O)c1nn(CCCCC#N)c2ccccc12)c1cccc(C(N)=O)c1` [Compound 56, N-[2-(3-Carbamoylphenyl)propan-2-yl]-1-(4-cyanobutyl)-1H-indazole-3-carboxamide] were 3 h, 7 µL/min/mg, 731 ± 161 nM and 760 ± 175 nM.
Consider `CC(C)(C#N)CCCn1nc(C(=O)NC(C)(C)c2cccc(C(N)=O)c2)c2ccccc21` [Compound 57, N-[2-(3-Carbamoylphenyl)propan-2-yl]-1-(4-cyano-4,4-dimethylbutyl)-1H-indazole-3-carboxamide], for which the EC50 at hCB1 receptor [1] is 742 ± 50 nM; on hCB2 receptor [3], above 10000 nM.
For `CCOCCn1nc(C(=O)NC(C)(C)c2cccc(C(N)=O)c2)c2ccccc21` [Compound 58, N-[2-(3-Carbamoylphenyl)propan-2-yl]-1-(2-ethoxyethyl)-1H-indazole-3-carboxamide], in that order: above 10000 nM and above 10000 nM.
Taken in the same sequence, the figures for `COCCCn1nc(C(=O)NC(C)(C)c2cccc(C(N)=O)c2)c2ccccc21` [Compound 59, N-[2-(3-Carbamoylphenyl)propan-2-yl]-1-(3-methoxypropyl)-1H-indazole-3-carboxamide] were above 10000 nM and 2560 ± 492 nM.
